Measurements taken from US20200040348A1, “CONTROL OF VIRAL AND BACTERIAL INFECTION BY ANTIMICROBIAL PEPTIDES RETROCYCLIN AND/OR PROTEGRIN EXPRESSED IN CHLOROPLASTS” (THE TRUSTEES OF THE UNIVERSITY OF PENNSYLVANIA, priority 2010, published 2020).
Entries after “also recorded” stand apart in the source; their conditions may differ. Where no end group is shown, it is not given here.

Experiments:
[1] = test system: T-tropic and M-tropic strains of HIV-1; settings: human CD4+ lymphocytes, in vitro; cited from earlier work
[2] = test system: Erwinia carotovora; test: In planta assay for resistance to Erwinia soft rot (syringe or sandpaper inoculation of tobacco leaves); format: in vivo; settings: mature transplastomic tobacco leaves; for necrosis at the site of inoculation: sand paper method, up to 10^8 E. carotovora cells; for necrosis surrounding the point of inoculation: syringe method, 10^8, 10^6, 10^4 and 10^2 E. carotovora cells, peptide expressed in chloroplasts
[3] = test system: HIV-1; settings: organ-like construct of human cervicovaginal tissue; cited from earlier work
[4] = test system: tobacco mosaic virus (TMV); format: in vivo; settings: transplastomic tobacco plants, within 20 days after inoculation
[5] = test system: Erwinia carotovora; test: Erwinia carotovora inoculation and bacterial count in tobacco leaves; format: in vivo; settings: plants inoculated with 1.0×10^5 cfu/ml E. carotovora
Procedure: The leaves of untransformed and transplastomic tobacco plants were inoculated with 20 μl of bacterial suspension (1.0×10^5 cfu/ml) through a syringe. Each leaf disc (0.8 cm diameter) was punched off from the inoculated area of an individual plant after 0, 1 or 3 days of incubation. The bacterial population inside the leaf was calculated as follows. Leaf tissue was ground in 100 μl sterilized water in a microcentrifuge tube. The suspension was serially diluted with sterilized water and was then plated on nutrient broth agar plates (Difco). Colonies were counted after one day of incubation at 25° C.

[6] = test system: vegetative B. anthracis cells; settings: cited from earlier work
[7] = test system: gram-positive or gram-negative bacteria; settings: cited from earlier work

Substance	concentration that inhibits proviral DNA formation and protects from infection [1] [µg/mL]	necrosis at the site of inoculation [2]	necrosis surrounding the point of inoculation [2]	amount that prevents HIV-1 infection [3] [µg]	symptoms of TMV infection [4]	symptoms of necrosis [5]	minimum effective concentration [6] [µg/mL]	minimum inhibitory concentrations [7] [µg/mL]
Retrocyclin	10 to 20							
Retrocyclin-101 [RC101]		no necrosis	no areas of necrosis	2	didn't show obvious symptoms of TMV infection; also recorded: resistant to TMV infection	no apparent symptoms of necrosis		
Retrocyclin-1							< 1	
Protegrin-1 (RGGRLCYCRRRFCVCVGR; not fully specified (bridges); ends and bridges not checked; also: two disulfide bonds, pairing not given here) [PG1]		mild discoloration	no areas of necrosis		typical mosaic, necrosis and wrinkle symptoms; also recorded: not effective	no apparent symptoms of necrosis		0.12 to 2
